Residue numbers refer to the chain shown, from its start.
Tests used:
[1] = target: T1, GST-ARV1-N98 (Homo sapiens, UniProt Q9H2C2); assay: Lipid overlay far western; format: binding
T1 construct: Expresses amino-terminal 98 amino acids of ARV1; made in house; host or cells: E. coli BL21 (pGEX-4T1)
T1 sequence (Q9H2C2 1-98): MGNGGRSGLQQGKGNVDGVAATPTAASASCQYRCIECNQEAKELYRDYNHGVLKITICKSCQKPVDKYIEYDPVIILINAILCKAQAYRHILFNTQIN
Protocol: (§1) Lipid overlays were blocked in TBST-BSA (100 mM Tris–HCl buffer, pH 7.5, 150 mM NaCl, 0.5% Tween 20, 3% bovine serum albumin) for 1 h and subsequently washed eight separate times with TBST for 2 min each. Overlays were incubated with 0.5 μg/ml GST-tagged or 6XHIS-tagged proteins in 3% TBST-BSA buffer containing 0.1% Triton X-100, for 1 h at room temperature and washed as above. Overlays were incubated with either anti-GST or anti-6XHIS monoclonal antibodies at a 1:1000 dilution in TBST-BSA for 1 h at room temperature followed by eight washes in TBST. Overlays were visualized using Immobilon Western Chemiluminescent horseradish peroxidase substrate and protein–lipid interaction was detected using a GE ImageQuant LAS 3000 imager.

[2] = target: T2, GST-ARV1 (full-length ARV1) (Homo sapiens, UniProt Q9H2C2); assay: Lipid overlay far western; format: binding
T2 construct: Expresses full length ARV1; made in house; host or cells: E. coli BL21 (pGEX-4T1)
T2 sequence (Q9H2C2 1-271): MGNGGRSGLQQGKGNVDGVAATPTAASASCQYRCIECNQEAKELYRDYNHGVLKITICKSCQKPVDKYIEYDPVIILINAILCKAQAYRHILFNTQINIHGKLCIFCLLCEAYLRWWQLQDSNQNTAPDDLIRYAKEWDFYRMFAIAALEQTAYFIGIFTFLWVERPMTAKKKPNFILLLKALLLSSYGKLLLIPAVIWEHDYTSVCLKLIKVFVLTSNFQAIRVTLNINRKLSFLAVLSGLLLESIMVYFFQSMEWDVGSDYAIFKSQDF
Protocol: as §1

[3] = target: GST-Annexin A2 (Homo sapiens, UniProt P07355); assay: Lipid overlay far western (positive control protein); format: binding
Protocol: as §1

[4] = target: T3, GST-ARV1-N98 (N-terminal 98 amino acids, AHD) (Homo sapiens, UniProt Q9H2C2); assay: Protein-lipid liposome binding assay (ultracentrifugation, Western blot); settings: protein detected in final pellet
T3 construct: Expresses amino-terminal 98 amino acids of ARV1; made in house; host or cells: E. coli BL21 (pGEX-4T1)
T3 sequence (Q9H2C2 1-98): T1 sequence (Q9H2C2 1-98)
Protocol: Lyophilized lipids were reconstituted in chloroform at 10 mg/ml and stored in glass tubes with Teflon tops at −20 °C until use. One milliliter of 10 mg/ml stock was dried under a stream of nitrogen in a glass tube until a lipid cake/film was formed. The lipid cake was then rehydrated in BLT rehydration buffer (5 mM Tris/HCl, pH 7.4, containing 150 mM NaCl) to a concentration of 1 mg/ml. Lipid suspensions were subjected to three freeze/thaw cycles using a dry ice ethanol/[…] water bath to encapsulate the buffer and improve liposome formation. The suspension and lipid extruder were equilibrated to temperature for 10 min and liposomes were extruded using […] polycarbonate membranes (Avestin). Liposomes were made by mixing stock lipid PL (1 mg/ml) with PC (10 mg/ml).
Cholesterol composition liposomes were rehydrated with cholesterol rehydration buffer (10 mM Hepes, pH 7.4, containing 150 mM KCl).
Liposomes were serial diluted in floatation buffer (100 mM NaCl, 2 mM EDTA, pH 5.5) to a final concentration of 0.1 mg/ml. Nine hundred microliters of liposome solution was placed in clear ultracentrifuge tubes and mixed with 100 μl of 0.01 μg/ml of protein. The liposome/protein solution was incubated at room temperature for 1 h with occasional shaking. An initial 100 μl of liposome/protein solution (liposomes) was removed and the remaining 900 μl was centrifuged at 50,000g for 20 min at 4 °C. The pellet was resuspended in 800 μl of fresh floatation buffer, centrifuged as above, and 800 μl of supernatant was removed (wash 1). This was repeated a second time and again 800 μl of supernatant was removed (wash 2). The final pellet was resuspended in 100 μl of floatation buffer plus SDS treatment buffer (pellet). Thirty microliters of each fraction was run on a 15% SDS-PAGE gel and probed with an anti-GST monoclonal antibody at a 1:1500 dilution.

[5] = target: T4, 6XHIS-N98 K67A (Homo sapiens, UniProt Q9H2C2, K67A); assay: HTRF phospholipid lipid-binding assay, mutant; parameters: key: NC, no change; settings: biotinylated lipid; NC = no change vs N98
T4 construct: made in house; host or cells: E. coli BL21
T4 sequence (Q9H2C2 1-98 K67A): T1 sequence (Q9H2C2 1-98) with K67A
Source text: An HTRF assay was developed for 6XHIS-ARV1-N98-lipid binding. HTRF measures analyte interactions through fluorescence resonance energy transfer technology and time-resolved measurements ([53]). The interaction between two molecules can be quantified through binding each individual molecule involved with a fluorescent label and then analyzing the transfer of energy between the initial donor fluorophore and the secondary acceptor fluorophore. Following excitation of the first fluorophore, transfer of energy can only occur if the molecules bound with the fluorescent tags are within proximity to each other.
Assays were plated in 384-well flat bottom microplates (Greiner Bio, catalog #784075-25). Proteins were diluted using binding buffer (20 mM Hepes buffer, pH 7.2, containing 0.1% BSA, and 0.01% Tween20) to a stock concentration of 0.75 μM, and biotinylated phospholipids were dispensed, dried under nitrogen gas, and resuspended in binding buffer to a stock concentration of 50 μM. The lipid stock solution was diluted by 1:2 for a series of 12 serial dilutions. For the assay, in sequential order, 6 μl of binding buffer was loaded into the plate in triplicate for each dilution of phospholipid. To this, 2 μl of 0.75 μM 6XHIS-ARV1-N98 was added, followed by 2 μl of biotinylated phospholipid. Immediately following each addition loaded into the plate, the plate was centrifuged for 1 min at 1000 rpm to bring the contents to the bottom of the well. Next, detection antibodies were mixed with detection buffer (20 mM Hepes buffer, pH 8.5, containing 0.01% BSA and 200 mM KF). Antibodies were a MAb anti-6XHIS Europium kryptate-conjugated D1 fluorescent antibody (Cisbio, #61HISKLA) and Streptavidin-conjugated d2 fluorescent antibody (Cisbio, #610SADLA). For each 1000 μl of detection buffer, 5 μl of each antibody was added just prior to loading 10 μl into each well. The plate was again centrifuged for 1 min at 1000 rpm and stored in a sealed container overnight, in the dark. Plates were read on a PerkinElmer EnVision Xcite Multilabel plate reader.
Curves were logarithmically transformed and normalized to a common scale before being fit with a nonlinear regression of the agonist against the normalized response. This generated half maximal effective concentration values (EC50; M) that could then be compared between different lipids. In the context of our study, EC50 values were defined as a measure of protein sensitivity to binding to a particular lipid within a dose response curve. For phospholipid competition analysis, IC50; M values were determined using nonlinear regression of the inhibitor against normalized response.

[6] = lipid-embedded membrane strips, incl. sphingolipid strip
[7] = PIP lipid membrane strip, 100pmol-1.56pmol per spot

Chain of GST-Annexin A2 (P07355 whole entry): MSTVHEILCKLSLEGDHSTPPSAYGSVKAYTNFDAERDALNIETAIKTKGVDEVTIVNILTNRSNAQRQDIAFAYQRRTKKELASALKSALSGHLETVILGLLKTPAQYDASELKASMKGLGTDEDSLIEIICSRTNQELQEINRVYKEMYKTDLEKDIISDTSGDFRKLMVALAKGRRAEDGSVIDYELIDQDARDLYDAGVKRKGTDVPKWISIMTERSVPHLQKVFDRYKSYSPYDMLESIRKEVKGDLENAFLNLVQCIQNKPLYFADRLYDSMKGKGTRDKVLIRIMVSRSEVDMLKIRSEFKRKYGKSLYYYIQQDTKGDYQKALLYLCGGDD

| Compound | lipid-protein interaction [1, 6] | lipid-protein interaction [2, 6] | lipid-protein interaction [3, 6] | binding to PC:PL liposomes [4] | Bio-PL, EC50, M ± S.D. [5] | lipid-protein interaction [1, 7] | lipid-protein interaction [2, 7] | lipid-protein interaction [3, 7] |
| --- | --- | --- | --- | --- | --- | --- | --- | --- |
| CCCCC/C=C\C/C=C\CCCCCCCC(=O)OC[C@H](COP(=O)(O)OCC(O)COP(=O)(O)OC[C@@H](COC(=O)CCCCCCC/C=C\C/C=C\CCCCC)OC(=O)CCCCCCC/C=C\C/C=C\CCCCC)OC(=O)CCCCCCC/C=C\C/C=C\CCCCC (stereo partly drawn) [CL, cardiolipin] | interacted | interacted | interacted | bound | – | – | – | – |
| CCCCCCCCCCCCCCCC(=O)OC[C@H](COP(=O)(O)O)OC(=O)CCCCCCCCCCCCCCC [PA, phosphatidic acid] | – | – | weakly | not | NC | – | – | – |
| CCCCCCCC/C=C\CCCCCCCC(=O)OC[C@H](COP(=O)(O)OCC(O)CO)OC(=O)CCCCCCC/C=C\CCCCCCCC (stereo partly drawn) [PG, phosphatidylglycerol] | interacted | weakly | – | bound | reduced PG binding | – | – | – |
| CCCCCCCCCCCCCCCCCC(=O)OC[C@H](COP(=O)(O)OC[C@H](N)C(=O)O)OC(=O)CCCCCCCCCCCCCCCCC [PS, phosphatidylserine] | interacted | interacted | interacted | bound | NC | – | – | – |
| CCCCCC(=O)O[C@H](COC(=O)CCCCCNC(=O)CCCC[C@@H]1SC[C@@H]2NC(=O)N[C@@H]21)COP(=O)(O)O[C@H]1[C@H](O)[C@@H](O)[C@H](OP(=O)(O)O)[C@@H](O)[C@H]1O [reference compound] | interacted | weakly | interacted | – | weakened | interacted | weakly | strongest interactions |
| phosphatidylcholine [PC] | – | – | – | – | NC | – | – | – |
| phosphatidylethanolamine [PE] | not seen | not seen | – | Neither | – | – | – | – |

Source: article PMC11952846, “The sterol-regulating human ARV1 binds cholesterol and phospholipids through its conserved ARV1 homology domain” (The Journal of Biological Chemistry, 2025)
